{"source": "patent US20020039780A1", "about": "“Salicyclic acid inducible genes and promoters” (priority 1998, published 2002)", "experiment_in_all_cases": "Northern analysis of mRNA accumulation in cultured tobacco cells", "format_in_all_cases": "cell-based", "key": {"G8-1 [1]": {"system": "G8-1", "settings": "SA 0.1 μM to 2 mM"}, "C18-1/EREBP1": {"system": "C18-1/EREBP1", "experimental": "(§1) FIG. 2. Time course of SA-induced gene expression. Northern analysis of representative differential display genes following treatment of cultured tobacco cells with SA for the indicated time (in hours, except lanes 2-4, which refer to 10, 20, and 30 min.). Twenty micrograms of total RNA was loaded per lane. Blots were hybridized with ddPCR fragments indicated at right or with the β-ATPase gene as a loading control probe. Autoradiogram exposure times were optimized for each gene. […] Labels on left indicate response class.\n(§2) FIG. 4. Specificity of induction among SA analogs and other signalling compounds. Northern analysis of representative differential display genes following treatment of tobacco cells with 100 μM or 1 mM (left and right side of triangles, respectively) of the following chemicals for 2-2.5 hr: salicylic acid (SA, lanes 4 and 5), acetylSA (ASA, lanes 6 and 7), benzoic acid (BA, lanes 8 and 9), 4-hydroxybenzoic (4HBA, lanes 10 and 11), thiamine (thia, lanes 12 and 13), methyljasmonate (MJ, lanes 14 and 15), abscisic acid (ABA, lanes 16 and 17), or 2,4-dichlorophenoxyacetic acid (2,4-D, lanes 18 and 19). Control treatments are H2O (H, lane 1), 1% ethanol (E, solvent concentration in MJ treatments, lane 2), or 1% DMSO (D, solvent concentration in 2,4D treatments, lane 3). Blots were hybridized with ddPCR fragments indicated at right or with the β-ATPase geneas a loading control probe. Autoradiogram exposure times were optimized for each gene. […] Labels on left indicate response class.\n(§3) FIG. 5. Dose response of C18-1 and G8-1 to a range of chemicals. Northern analysis of tobacco cell cultures with eight concentrations of SA, ASA, BA, 4HBA, Thia, MJ, ABA, 2,4-D, or H2O for 2-2.5 hr. Concentrations were 0.1, 1, 3, 10, 30, 100, 300 μM or […], as indicated.\n(§4) FIG. 6. […] Graphic representation of mRNA accumulation of G8-1 ( ), C18se -1 (♦), and IEGT (o) in response to a 2-2.5 hr incubation of cultured tobacco cells with a range of SA concentrations. RNA gel blots were quantitated by phosphorimaging analysis and normalized relative to the β-ATPase gene loading control (not shown).\n(§5) Differential display technology (Liang, P. and Pardee, A. B., Science 257: 967-971, 1992) was used to identify genes activated in the presence of SA, CHX and both. Therefore the absence or presence of SA, induction at 3 timepoints of SA-treatment, 2 different concentrations of SA and the effect of addition of CHX were measured. Seven treatments in total were performed. Treatment of tobacco BY-2 suspension cells and leaves and differential display PCR reactions were performed as described (Horvath and Chua (1996), Plant Mol. Biol. 31, 1061-1072).\nThe kinetics of induction were examined in detail through time course experiments for representative clones of each class (FIG. 2).\nThe specificity for induction by SA was tested by treating tobacco cells with a range of SA analogs and plant signalling compounds at 0.1 and 1 mM for approximately 2.5 h. […] Several genes, including those for proteinase inhibitors and lipoxygenase (Hildmann, T. et al., Plant Cell 4: 1157-1170, 1992; Melan, M. A. et al., Plant Physiol. 101: 441-450, 1993; Xu, D. et al., Plant Mol. Biol. 22: 573-588, 1993) are known to be under dual regulation by MJ and ABA.\nA dose-response curve was made for SA. Therefore tobacco cells were treated with SA in a range of concentrations from 0.1 μM to 2 mM."}, "G8-1 [2]": {"system": "G8-1", "experimental": "FIG. 1. […] Northern analysis of genes identified by differential display. Gel-purified DNA fragments produced by ddPCR were either used directly for random-primed labeling and probing of Northern filters (e.g. C7-1, C6-1, and G9-2) or first subcloned and released by restriction digest. Each lane contains 1 μg of poly(A) mRNA from cultured tobacco cells treated with (1) H2O, 4 hr; (2) 200 μM SA, 4 hr; (3) 71 μM CHX, 5 hr; (4) 71 μM CHX, 5 hr plus 200 μM SA after 1 hr (4 hr total); (5) 20 μM SA, 2 hr; (7) 200 μM SA, 8 hr.\nas §1, §2, §3, §4, §5\nThe specificity for induction by SA was tested by treating tobacco cells with a range of SA analogs and plant signalling compounds at 0.1 and 1 mM for approximately 2.5 h."}, "[3]": {"settings": "0.1 and 1 mM, approximately 2.5 h"}}, "data": [{"smiles": "O=C(O)c1ccccc1O", "note": "[SA, salicylic acid]", "values": [{"measurement": "EC50", "setting": "G8-1 [1]; Nicotiana tabacum, tobacco cells, 2-2.5 hr, read-out: concentration of SA required for half of the maximum level of G8-1 expression", "value": "~1", "unit": "µM"}, {"measurement": "response of G8-1 expression to SA concentration range", "setting": "G8-1 [1]", "value": "activated over a large SA concentration range"}, {"measurement": "C18-1/EREBP1 induction at 0.1 mM versus 1 mM", "setting": "C18-1/EREBP1; [3]", "value": "greater induction at 1mM"}, {"measurement": "EC50", "setting": "C18-1/EREBP1; Nicotiana tabacum, tobacco cells, SA 0.1 μM to 2 mM, 2-2.5 hr, read-out: concentration of SA required for half of the maximum level of C18-1/EREBP1 expression", "value": "100 to 150", "unit": "µM"}, {"measurement": "response zone of C18-1/EREBP1 to SA concentration", "setting": "C18-1/EREBP1; SA 0.1 μM to 2 mM", "value": "narrow response zone"}, {"measurement": "time of decay of C18-1/EREBP1 mRNA to background levels", "setting": "C18-1/EREBP1; SA time course", "value": "≤ 4.5", "unit": "h"}, {"measurement": "time of peak C18-1/EREBP1 mRNA", "setting": "C18-1/EREBP1; SA time course", "value": 2, "unit": "h"}, {"measurement": "G8-1 mRNA levels at 20 μM SA", "setting": "G8-1 [2]; 20 μM SA", "value": "comparable to those at 200 μM"}, {"measurement": "G8-1 induction at 0.1 mM versus 1 mM", "setting": "G8-1 [2]; [3]", "value": "equal or greater induction at 0.1 mM versus 1 mM"}, {"measurement": "mRNA induction of G8-1 (class III)", "setting": "G8-1 [2]; SA at 2, 4, 8 h, 71 μM CHX 5 hrs", "value": "rapid mRNA induction"}, {"measurement": "time at which G8-1 is first detected", "setting": "G8-1 [2]; SA time course", "value": "30 to 60", "unit": "min"}, {"measurement": "time at which G8-1 reaches a plateau", "setting": "G8-1 [2]; SA time course", "value": "2 to 2.5", "unit": "h"}, {"measurement": "time for which G8-1 plateau is maintained", "setting": "G8-1 [2]; SA time course", "value": "at least 12 h"}]}]}
